Source: paper PMC6339850 (ACS chemical neuroscience, 2018)
Like-named read-outs stand apart in the source and are kept apart here. Bridge positions count the residues as written; N and C are the ends. Square brackets hold non-standard residues; d marks the D form. Dap = NC[C@H](N)C(=O)O

What was measured:
[1] = target: T1, mouse MC3R (Mus musculus, UniProt P33033); test: cAMP AlphaScreen antagonist assay
[2] = target: T1, mouse MC3R; test: cell-based
[3] = target: T2, mouse MC1R (Mus musculus, UniProt Q01727); test: cell-based
[4] = target: T3, mouse MC5R (Mus musculus, UniProt P41149); details: for mMC5R inverse agonist, percent change from basal at 100 μM: 100000.0; for MC5R activity in words: up to 100 μM
[5] = target: T3, mouse MC5R; test: cell-based
[6] = target: T2, mouse MC1R; details: agonist potency relative to 2
[7] = target: T1, mouse MC3R; details: agonist (up to 100 μM) and antagonist activity at the concentrations assayed
[8] = tested on: MC1R; details: read-out: MC1R agonist potency, cited from earlier work
[9] = target: mouse melanocortin-4 receptor (mouse) (UniProt P56450)
[10] = target: mouse melanocortin-5 receptor (mouse) (UniProt P41149)
[11] = target: mouse melanocortin-3 receptor (mouse) (UniProt P33033)
mouse melanocortin-3 receptor (mouse), sequence (P33033 whole entry): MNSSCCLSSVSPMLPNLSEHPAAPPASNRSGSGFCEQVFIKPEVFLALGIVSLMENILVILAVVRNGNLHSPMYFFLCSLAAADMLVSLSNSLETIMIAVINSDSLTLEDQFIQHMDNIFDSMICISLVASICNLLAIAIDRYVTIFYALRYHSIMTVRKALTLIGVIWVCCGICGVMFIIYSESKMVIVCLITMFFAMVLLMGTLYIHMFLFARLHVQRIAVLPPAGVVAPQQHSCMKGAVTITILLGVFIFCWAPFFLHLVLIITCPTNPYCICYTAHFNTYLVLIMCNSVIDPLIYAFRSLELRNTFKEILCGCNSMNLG

mouse melanocortin-5 receptor (mouse), sequence (P41149 whole entry): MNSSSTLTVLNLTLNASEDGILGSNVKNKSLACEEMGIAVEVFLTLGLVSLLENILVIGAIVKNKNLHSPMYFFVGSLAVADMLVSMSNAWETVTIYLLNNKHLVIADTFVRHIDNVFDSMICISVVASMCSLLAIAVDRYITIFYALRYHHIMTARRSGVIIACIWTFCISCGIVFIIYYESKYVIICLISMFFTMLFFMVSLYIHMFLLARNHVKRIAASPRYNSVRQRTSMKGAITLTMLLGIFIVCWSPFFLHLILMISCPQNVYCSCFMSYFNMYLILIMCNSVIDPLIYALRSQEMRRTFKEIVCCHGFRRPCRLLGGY
T3 sequence (P41149 whole entry): as above
mouse melanocortin-4 receptor (mouse), sequence (P56450 whole entry): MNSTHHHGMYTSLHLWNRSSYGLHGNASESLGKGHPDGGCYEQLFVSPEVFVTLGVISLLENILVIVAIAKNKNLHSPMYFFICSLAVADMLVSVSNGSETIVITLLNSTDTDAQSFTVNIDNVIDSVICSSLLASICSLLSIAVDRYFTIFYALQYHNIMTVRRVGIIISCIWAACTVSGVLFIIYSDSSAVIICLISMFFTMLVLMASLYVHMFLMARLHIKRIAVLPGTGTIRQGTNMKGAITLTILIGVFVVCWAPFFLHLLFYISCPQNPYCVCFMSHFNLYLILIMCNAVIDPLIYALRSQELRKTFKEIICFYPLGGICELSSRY
T2 sequence (Q01727 whole entry): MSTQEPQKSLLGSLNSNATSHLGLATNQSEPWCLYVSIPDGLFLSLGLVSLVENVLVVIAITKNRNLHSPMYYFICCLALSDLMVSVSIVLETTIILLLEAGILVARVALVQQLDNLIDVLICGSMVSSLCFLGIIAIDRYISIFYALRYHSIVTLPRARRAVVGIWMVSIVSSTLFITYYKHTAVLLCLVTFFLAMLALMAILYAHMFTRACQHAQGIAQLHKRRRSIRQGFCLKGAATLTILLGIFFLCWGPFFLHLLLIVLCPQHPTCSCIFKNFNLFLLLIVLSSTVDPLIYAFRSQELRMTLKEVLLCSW
T1 sequence (P33033 whole entry): as the sequence (P33033 whole entry) above

Which Kb [1] does the source give for `C[C@@H]1NC(=O)[C@H](CN)NC(=O)[C@@H](Cc2ccccc2)NC(=O)[C@H](Cc2ccccc2)NC(=O)[C@@H](CCCNC(=N)N)NC(=O)[C@@H]2CCCN2C(=O)[C@H]2CCCN2C(=O)[C@H](Cc2ccccc2)NC1=O` [Peptide 14, c[Pro-DArg-Phe-DPhe-Dap-Ala-Phe-DPro]] here?
The Kb was 2 µM.

What about the EC50 [2] of the same compound?
Its EC50 is > 100 µM.

And the EC50 [3]?
Its EC50 is 0.45 µM.

What about the “mMC5R inverse agonist, percent change from basal at 100 μM” value [4] of the same compound?
The value was 20%.

And the “MC5R activity in words” value [4]?
Its value is “apparent inverse agonist activity”.

For `C[C@@H]1NC(=O)[C@H](CN)NC(=O)[C@@H](Cc2ccccc2)NC(=O)[C@@H](Cc2ccccc2)NC(=O)[C@H](CCCNC(=N)N)NC(=O)[C@@H]2CCCN2C(=O)[C@H]2CCCN2C(=O)[C@H](Cc2ccccc2)NC1=O` [Peptide 15, c[Pro-Arg-DPhe-DPhe-Dap-Ala-Phe-DPro]], which Kb [1] is on record?
The Kb was 2 µM.

What about the EC50 [2] of the same compound?
Its EC50 is > 100 µM.

And the EC50 [5]?
Its EC50 is > 100 µM.

What about the EC50 [3] of the same compound?
Its EC50 is 0.7 ± 0.3 µM.

And the “MC1R potency increase compared to the starting ligand 2” value [6]?
Its value is > 1,000 fold.

And the “MC5R activity in words” value [4]?
The value was “no activity was observed”.

Which results are given for `C[C@@H]1NC(=O)[C@H](CN)NC(=O)[C@@H](Cc2ccccc2)NC(=O)[C@@H](Cc2ccccc2)NC(=O)[C@@H](CCCNC(=N)N)NC(=O)[C@@H]2CCCN2C(=O)[C@H]2CCCN2C(=O)[C@H](Cc2ccccc2)NC1=O` [Peptide 16, c[Pro-DArg-DPhe-DPhe-Dap-Ala-Phe-DPro]]?
Kb [1]: > 3.16 µM; EC50 [2]: > 100 µM; EC50 [3]: 2.2 µM; MC3R activity in words [7]: no activity; mMC5R inverse agonist, percent change from basal at 100 μM [4]: 15%; MC5R activity in words [4]: apparent inverse agonist activity

Which EC50 ([8]; previously reported ref 33) does the source give for “H-Tyr-c[Cys-Arg-Phe-Phe-Asn-Ala-Phe-Cys]-Tyr-OH” here?
The EC50 was 2.89 µM.

For “H-Tyr-c[Dap-Arg-Phe-Phe-Asn-Ala-Phe-Asp]-Tyr-NH2 (Y[Dap]RFFNAFDY-NH2; lactam N-9; SMILES C[C@@H]1NC(=O)[C@H](CC(N)=O)NC(=O)[C@H](Cc2ccccc2)NC(=O)[C@H](Cc2ccccc2)NC(=O)[C@H](CCCNC(=N)N)NC(=O)[C@H](CN)NC(=O)[C@H](Cc2ccc(O)cc2)NC(=O)C[C@@H](C(=O)N[C@@H](Cc2ccc(O)cc2)C(N)=O)NC(=O)[C@H](Cc2ccccc2)NC1=O)”, which EC50 ([8]; previously reported ref 34) is on record?
The EC50 was 28.1 µM.

Which results are given for “c[Pro-Arg-DPhe-DPhe-Dap-Ala-Phe-DPro] (peptide)”?
agonist EC50; cAMP AlphaScreen, HEK293 cells stably expressing mouse MC4R [9]: > 100 µM; agonist EC50; cAMP AlphaScreen, HEK293 cells stably expressing mouse MC5R [10]: > 100 µM; agonist EC50; cAMP AlphaScreen, HEK293 cells stably expressing mouse MC3R [11]: > 100 µM

With “c[Pro-Arg-DPhe-Phe-Dap-Ala-Phe-DPro] (peptide)” as the compound, how does the agonist EC50; cAMP AlphaScreen, HEK293 cells stably expressing mouse MC5R [10] read?
The agonist EC50; cAMP AlphaScreen, HEK293 cells stably expressing mouse MC5R was > 100 µM.

And the agonist EC50; cAMP AlphaScreen, HEK293 cells stably expressing mouse MC3R [11]?
The agonist EC50; cAMP AlphaScreen, HEK293 cells stably expressing mouse MC3R was > 100 µM.

What does the source list for “c[Pro-Arg-Phe-DPhe-Dap-Ala-Phe-DPro] (peptide)”?
agonist EC50; cAMP AlphaScreen, HEK293 cells stably expressing mouse MC4R [9]: > 100 µM; agonist EC50; cAMP AlphaScreen, HEK293 cells stably expressing mouse MC5R [10]: > 100 µM; agonist EC50; cAMP AlphaScreen, HEK293 cells stably expressing mouse MC3R [11]: > 100 µM

Which results are given for “c[Pro-DArg-DPhe-DPhe-Dap-Ala-Phe-DPro] (peptide)”?
agonist EC50; cAMP AlphaScreen, HEK293 cells stably expressing mouse MC4R [9]: > 100 µM; agonist EC50; cAMP AlphaScreen, HEK293 cells stably expressing mouse MC3R [11]: > 100 µM

Which results are given for “c[Pro-DArg-DPhe-Phe-Dap-Ala-Phe-DPro] (peptide)”?
agonist EC50; cAMP AlphaScreen, HEK293 cells stably expressing mouse MC4R [9]: > 100 µM; agonist EC50; cAMP AlphaScreen, HEK293 cells stably expressing mouse MC3R [11]: > 100 µM

What does the source list for “c[Pro-DArg-Phe-DPhe-Dap-Ala-Phe-DPro] (peptide)”?
agonist EC50; cAMP AlphaScreen, HEK293 cells stably expressing mouse MC4R [9]: > 100 µM; agonist EC50; cAMP AlphaScreen, HEK293 cells stably expressing mouse MC3R [11]: > 100 µM

Which agonist EC50; cAMP AlphaScreen, HEK293 cells stably expressing mouse MC5R [10] does the source give for “c[Pro-DArg-Phe-Phe-Dap-Ala-Phe-DPro] (peptide)” here?
The agonist EC50; cAMP AlphaScreen, HEK293 cells stably expressing mouse MC5R was > 100 µM.
